Test results from patent US9090625B2, “Therapeutic pyrazolyl thienopyridines” (Thesan Pharmaceuticals, Inc., priority 2006, dated 2015).

Test system: Smad binding element (SBE) luciferase reporter activity in TGFβ1 stimulated NIH-3T3 cells
Assay: ALK-5 gene reporter assay: Smad binding element (SBE) luciferase reporter in TGFβ1 stimulated NIH-3T3 cells
Conditions: Mus musculus, NIH3T3

## CCc1cnn(-c2cccc(C)n2)c1-c1cc2cnccc2s1 [Example 4, 2-[4-ethyl-1-(6-methylpyridin-2-yl)-1H-pyrazol-5-yl]thieno[3,2-c]pyridine]
  IC50: 21.5 nM
